Assay results taken from ChEMBL document CHEMBL4507287, “Data for DCP probe MRL-650” (2021).

Legend:
[1] = target: Cyclin-dependent kinase 5 (Homo sapiens) (UniProt Q00535); conditions: Compound concentration 1000.0 nM
[2] = target: Tyrosine-protein kinase CSK (Homo sapiens) (UniProt P41240); conditions: Compound concentration 1000.0 nM
[3] = target: Serine/threonine-protein kinase DCLK2 (Homo sapiens) (UniProt Q8N568); conditions: Compound concentration 1000.0 nM
[4] = target: Discoidin domain-containing receptor 2 (Homo sapiens) (UniProt Q16832); conditions: Compound concentration 1000.0 nM
Discoidin domain-containing receptor 2 (Homo sapiens), sequence (Q16832 whole entry, the tested form may be a part): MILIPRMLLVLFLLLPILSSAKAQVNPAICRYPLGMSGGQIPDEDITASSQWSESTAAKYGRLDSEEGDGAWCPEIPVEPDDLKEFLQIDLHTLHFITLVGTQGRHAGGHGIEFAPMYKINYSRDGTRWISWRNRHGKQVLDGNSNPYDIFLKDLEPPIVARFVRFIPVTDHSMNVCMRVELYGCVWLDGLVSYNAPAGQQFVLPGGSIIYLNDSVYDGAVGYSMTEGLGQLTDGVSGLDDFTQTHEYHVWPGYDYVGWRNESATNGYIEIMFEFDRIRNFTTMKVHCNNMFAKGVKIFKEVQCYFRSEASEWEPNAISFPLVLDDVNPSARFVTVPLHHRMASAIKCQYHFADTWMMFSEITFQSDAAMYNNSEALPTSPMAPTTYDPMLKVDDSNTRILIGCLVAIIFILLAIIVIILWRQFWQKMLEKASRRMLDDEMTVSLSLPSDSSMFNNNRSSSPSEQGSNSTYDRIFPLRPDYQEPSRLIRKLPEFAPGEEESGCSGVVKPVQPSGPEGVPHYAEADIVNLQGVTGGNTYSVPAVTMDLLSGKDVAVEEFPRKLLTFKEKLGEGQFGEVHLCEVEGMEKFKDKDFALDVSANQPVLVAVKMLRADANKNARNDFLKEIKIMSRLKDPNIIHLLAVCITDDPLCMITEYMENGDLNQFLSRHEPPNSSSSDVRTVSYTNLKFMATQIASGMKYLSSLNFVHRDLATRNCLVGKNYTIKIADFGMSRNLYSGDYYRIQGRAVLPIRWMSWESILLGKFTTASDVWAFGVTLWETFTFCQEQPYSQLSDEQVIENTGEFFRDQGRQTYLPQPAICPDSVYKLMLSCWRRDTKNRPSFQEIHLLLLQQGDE

[5] = target: Mitogen-activated protein kinase kinase kinase 12 (Homo sapiens) (UniProt Q12852); conditions: Compound concentration 1000.0 nM
[6] = target: Serine/threonine-protein kinase MRCK gamma (Homo sapiens) (UniProt Q6DT37); conditions: Compound concentration 1000.0 nM
[7] = target: Ephrin type-A receptor 2 (Homo sapiens) (UniProt P29317); conditions: Compound concentration 1000.0 nM
[8] = target: Ephrin type-A receptor 4 (Homo sapiens) (UniProt P54764); conditions: Compound concentration 1000.0 nM
[9] = target: Ephrin type-B receptor 2 (Homo sapiens) (UniProt P29323); conditions: Compound concentration 1000.0 nM
[10] = target: Receptor tyrosine-protein kinase erbB-2 (Homo sapiens) (UniProt P04626); conditions: Compound concentration 1000.0 nM
[11] = target: Receptor tyrosine-protein kinase erbB-3 (Homo sapiens) (UniProt P21860); conditions: Compound concentration 1000.0 nM
[12] = target: Rhodopsin kinase GRK7 (Homo sapiens) (UniProt Q8WTQ7); conditions: Compound concentration 1000.0 nM
[13] = target: Insulin-like growth factor 1 receptor (Homo sapiens) (UniProt P08069); conditions: Compound concentration 1000.0 nM
[14] = target: Inhibitor of nuclear factor kappa-B kinase subunit epsilon (Homo sapiens) (UniProt Q14164); conditions: Compound concentration 1000.0 nM
[15] = target: Mitogen-activated protein kinase kinase kinase kinase 5 (Homo sapiens) (UniProt Q9Y4K4); conditions: Compound concentration 1000.0 nM
[16] = target: MAP kinase-activated protein kinase 2 (Homo sapiens) (UniProt P49137); conditions: Compound concentration 1000.0 nM
MAP kinase-activated protein kinase 2 (Homo sapiens), sequence (P49137 whole entry, looked up): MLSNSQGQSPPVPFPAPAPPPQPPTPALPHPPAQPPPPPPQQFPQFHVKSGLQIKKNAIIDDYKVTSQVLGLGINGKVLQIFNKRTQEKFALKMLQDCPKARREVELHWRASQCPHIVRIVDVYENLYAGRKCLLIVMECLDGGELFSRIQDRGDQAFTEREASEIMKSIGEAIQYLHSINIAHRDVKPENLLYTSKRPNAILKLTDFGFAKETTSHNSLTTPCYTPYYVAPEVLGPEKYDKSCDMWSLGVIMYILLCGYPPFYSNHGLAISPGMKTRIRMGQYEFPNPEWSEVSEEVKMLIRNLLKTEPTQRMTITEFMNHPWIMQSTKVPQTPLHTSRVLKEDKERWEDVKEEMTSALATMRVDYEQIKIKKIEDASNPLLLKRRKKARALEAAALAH

[17] = target: MAP/microtubule affinity-regulating kinase 4 (Homo sapiens) (UniProt Q96L34); conditions: Compound concentration 1000.0 nM
[18] = target: Dual specificity mitogen-activated protein kinase kinase 2 (Homo sapiens) (UniProt P36507); conditions: Compound concentration 1000.0 nM
[19] = target: Tyrosine-protein kinase Mer (Homo sapiens) (UniProt Q12866); conditions: Compound concentration 1000.0 nM
[20] = target: Serine/threonine-protein kinase PAK 5 (Homo sapiens) (UniProt Q9P286); conditions: Compound concentration 1000.0 nM
[21] = target: Cyclin-dependent kinase 18 (Homo sapiens) (UniProt Q07002); conditions: Compound concentration 1000.0 nM
[22] = target: Calcium-dependent protein kinase 1 (Plasmodium falciparum) (UniProt P62344); conditions: Compound concentration 1000.0 nM
Calcium-dependent protein kinase 1 (Plasmodium falciparum), sequence (P62344 2-524 limits assumed): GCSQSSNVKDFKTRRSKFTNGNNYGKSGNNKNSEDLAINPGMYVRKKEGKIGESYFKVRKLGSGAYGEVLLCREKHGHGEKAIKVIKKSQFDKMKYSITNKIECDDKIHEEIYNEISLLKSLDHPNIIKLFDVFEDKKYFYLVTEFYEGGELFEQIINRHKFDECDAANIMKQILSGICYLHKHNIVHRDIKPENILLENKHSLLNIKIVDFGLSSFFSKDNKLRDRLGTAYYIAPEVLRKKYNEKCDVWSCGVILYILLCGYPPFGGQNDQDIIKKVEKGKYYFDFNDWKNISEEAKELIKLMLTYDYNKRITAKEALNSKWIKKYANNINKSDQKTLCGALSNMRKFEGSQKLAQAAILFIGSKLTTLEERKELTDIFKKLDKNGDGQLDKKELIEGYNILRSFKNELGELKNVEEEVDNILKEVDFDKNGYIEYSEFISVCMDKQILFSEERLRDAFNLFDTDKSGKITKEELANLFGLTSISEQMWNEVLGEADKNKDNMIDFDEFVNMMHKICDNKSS

[23] = target: Phosphatidylinositol 4-kinase beta (Homo sapiens) (UniProt Q9UBF8); conditions: Compound concentration 1000.0 nM
[24] = target: Serine/threonine-protein kinase pim-1 (Homo sapiens) (UniProt P11309); conditions: Compound concentration 1000.0 nM
[25] = target: Phosphatidylinositol 5-phosphate 4-kinase type-2 beta (Homo sapiens) (UniProt P78356); conditions: Compound concentration 1000.0 nM
Phosphatidylinositol 5-phosphate 4-kinase type-2 beta (Homo sapiens), sequence (P78356 whole entry): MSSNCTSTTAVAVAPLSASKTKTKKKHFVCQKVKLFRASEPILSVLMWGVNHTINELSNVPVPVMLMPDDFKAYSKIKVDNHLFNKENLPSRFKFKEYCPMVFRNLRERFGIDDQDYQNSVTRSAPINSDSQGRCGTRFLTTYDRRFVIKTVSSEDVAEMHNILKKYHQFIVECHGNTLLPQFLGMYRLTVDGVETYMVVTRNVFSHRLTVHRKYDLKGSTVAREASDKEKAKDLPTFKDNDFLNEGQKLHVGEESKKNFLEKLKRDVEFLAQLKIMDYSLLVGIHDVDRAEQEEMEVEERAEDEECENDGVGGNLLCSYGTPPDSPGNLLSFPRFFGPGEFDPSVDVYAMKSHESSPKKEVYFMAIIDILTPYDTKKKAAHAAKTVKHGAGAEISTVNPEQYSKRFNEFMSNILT

[26] = target: Serine/threonine-protein kinase SIK3 (Homo sapiens) (UniProt Q9Y2K2); conditions: Compound concentration 1000.0 nM
[27] = tested on: Proto-oncogene tyrosine-protein kinase receptor Ret (Homo sapiens), P07949 [M918T]; conditions: Compound concentration 1000.0 nM
[28] = target: Ribosomal protein S6 kinase alpha-4 (Homo sapiens) (UniProt O75676); conditions: Compound concentration 1000.0 nM
Ribosomal protein S6 kinase alpha-4 (Homo sapiens), sequence (O75676 whole entry, looked up): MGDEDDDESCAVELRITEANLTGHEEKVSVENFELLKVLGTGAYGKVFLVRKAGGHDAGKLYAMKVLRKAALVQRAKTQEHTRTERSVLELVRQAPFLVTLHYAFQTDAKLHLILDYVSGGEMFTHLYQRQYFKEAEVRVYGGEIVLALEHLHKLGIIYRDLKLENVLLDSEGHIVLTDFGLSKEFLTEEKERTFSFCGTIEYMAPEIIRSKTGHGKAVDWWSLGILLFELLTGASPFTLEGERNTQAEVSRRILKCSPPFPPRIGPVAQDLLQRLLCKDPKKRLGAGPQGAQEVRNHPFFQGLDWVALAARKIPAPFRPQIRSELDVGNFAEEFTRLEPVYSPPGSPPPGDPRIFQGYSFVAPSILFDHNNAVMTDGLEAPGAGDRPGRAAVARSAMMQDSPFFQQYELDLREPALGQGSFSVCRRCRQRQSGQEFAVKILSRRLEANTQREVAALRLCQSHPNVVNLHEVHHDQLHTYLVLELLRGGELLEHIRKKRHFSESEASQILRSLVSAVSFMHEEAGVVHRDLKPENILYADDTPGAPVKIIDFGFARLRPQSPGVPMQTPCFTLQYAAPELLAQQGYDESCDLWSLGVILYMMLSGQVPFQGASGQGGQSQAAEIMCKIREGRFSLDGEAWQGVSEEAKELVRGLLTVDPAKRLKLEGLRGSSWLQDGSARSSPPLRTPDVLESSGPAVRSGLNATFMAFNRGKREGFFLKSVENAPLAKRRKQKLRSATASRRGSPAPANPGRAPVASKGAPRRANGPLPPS

[29] = target: Ribosomal protein S6 kinase alpha-4 (Homo sapiens) (UniProt O75676); conditions: Compound concentration 1000.0 nM; remark: listed apart in the source
[30] = target: Ribosomal protein S6 kinase alpha-2 (Homo sapiens) (UniProt Q15349); conditions: Compound concentration 1000.0 nM
Ribosomal protein S6 kinase alpha-2 (Homo sapiens), sequence (Q15349 whole entry): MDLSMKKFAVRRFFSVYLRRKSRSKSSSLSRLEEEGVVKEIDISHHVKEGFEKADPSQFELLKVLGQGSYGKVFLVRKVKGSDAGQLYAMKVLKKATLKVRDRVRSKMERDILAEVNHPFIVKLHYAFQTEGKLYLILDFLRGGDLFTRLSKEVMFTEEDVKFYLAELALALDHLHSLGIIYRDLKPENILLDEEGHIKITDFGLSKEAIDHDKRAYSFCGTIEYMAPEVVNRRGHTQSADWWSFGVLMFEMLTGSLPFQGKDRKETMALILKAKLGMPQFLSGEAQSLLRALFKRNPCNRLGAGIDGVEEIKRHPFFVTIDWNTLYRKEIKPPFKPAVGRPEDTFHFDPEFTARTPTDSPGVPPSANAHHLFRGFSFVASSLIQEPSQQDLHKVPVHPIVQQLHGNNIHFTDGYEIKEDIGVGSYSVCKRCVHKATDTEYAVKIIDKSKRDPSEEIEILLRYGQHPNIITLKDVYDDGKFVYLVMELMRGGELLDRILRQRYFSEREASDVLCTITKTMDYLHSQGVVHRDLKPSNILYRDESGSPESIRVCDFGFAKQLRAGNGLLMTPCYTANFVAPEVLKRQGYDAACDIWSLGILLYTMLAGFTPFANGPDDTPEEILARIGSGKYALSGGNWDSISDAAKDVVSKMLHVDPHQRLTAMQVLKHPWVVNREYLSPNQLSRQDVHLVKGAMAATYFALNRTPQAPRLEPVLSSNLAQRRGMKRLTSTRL

[31] = target: Ribosomal protein S6 kinase alpha-6 (Homo sapiens) (UniProt Q9UK32); conditions: Compound concentration 1000.0 nM
[32] = target: Serine/threonine-protein kinase 16 (Homo sapiens) (UniProt O75716); conditions: Compound concentration 1000.0 nM
[33] = target: Serine/threonine-protein kinase 36 (Homo sapiens) (UniProt Q9NRP7); conditions: Compound concentration 1000.0 nM
[34] = target: Tyrosine-protein kinase SYK (Homo sapiens) (UniProt P43405); conditions: Compound concentration 1000.0 nM
[35] = target: Serine/threonine-protein kinase TAO2 (Homo sapiens) (UniProt Q9UL54); conditions: Compound concentration 1000.0 nM
[36] = target: Serine/threonine-protein kinase TBK1 (Homo sapiens) (UniProt Q9UHD2); conditions: Compound concentration 1000.0 nM
[37] = target: Serine/threonine-protein kinase tousled-like 1 (Homo sapiens) (UniProt Q9UKI8); conditions: Compound concentration 1000.0 nM
[38] = target: Testis-specific serine/threonine-protein kinase 1 (Homo sapiens) (UniProt Q9BXA7); conditions: Compound concentration 1000.0 nM
[39] = target: Serine/threonine-protein kinase ULK2 (Homo sapiens) (UniProt Q8IYT8); conditions: Compound concentration 1000.0 nM
[40] = target: Mitogen-activated protein kinase kinase kinase 19 (Homo sapiens) (UniProt Q56UN5); conditions: Compound concentration 1000.0 nM
Mitogen-activated protein kinase kinase kinase 19 (Homo sapiens), sequence (Q56UN5 whole entry): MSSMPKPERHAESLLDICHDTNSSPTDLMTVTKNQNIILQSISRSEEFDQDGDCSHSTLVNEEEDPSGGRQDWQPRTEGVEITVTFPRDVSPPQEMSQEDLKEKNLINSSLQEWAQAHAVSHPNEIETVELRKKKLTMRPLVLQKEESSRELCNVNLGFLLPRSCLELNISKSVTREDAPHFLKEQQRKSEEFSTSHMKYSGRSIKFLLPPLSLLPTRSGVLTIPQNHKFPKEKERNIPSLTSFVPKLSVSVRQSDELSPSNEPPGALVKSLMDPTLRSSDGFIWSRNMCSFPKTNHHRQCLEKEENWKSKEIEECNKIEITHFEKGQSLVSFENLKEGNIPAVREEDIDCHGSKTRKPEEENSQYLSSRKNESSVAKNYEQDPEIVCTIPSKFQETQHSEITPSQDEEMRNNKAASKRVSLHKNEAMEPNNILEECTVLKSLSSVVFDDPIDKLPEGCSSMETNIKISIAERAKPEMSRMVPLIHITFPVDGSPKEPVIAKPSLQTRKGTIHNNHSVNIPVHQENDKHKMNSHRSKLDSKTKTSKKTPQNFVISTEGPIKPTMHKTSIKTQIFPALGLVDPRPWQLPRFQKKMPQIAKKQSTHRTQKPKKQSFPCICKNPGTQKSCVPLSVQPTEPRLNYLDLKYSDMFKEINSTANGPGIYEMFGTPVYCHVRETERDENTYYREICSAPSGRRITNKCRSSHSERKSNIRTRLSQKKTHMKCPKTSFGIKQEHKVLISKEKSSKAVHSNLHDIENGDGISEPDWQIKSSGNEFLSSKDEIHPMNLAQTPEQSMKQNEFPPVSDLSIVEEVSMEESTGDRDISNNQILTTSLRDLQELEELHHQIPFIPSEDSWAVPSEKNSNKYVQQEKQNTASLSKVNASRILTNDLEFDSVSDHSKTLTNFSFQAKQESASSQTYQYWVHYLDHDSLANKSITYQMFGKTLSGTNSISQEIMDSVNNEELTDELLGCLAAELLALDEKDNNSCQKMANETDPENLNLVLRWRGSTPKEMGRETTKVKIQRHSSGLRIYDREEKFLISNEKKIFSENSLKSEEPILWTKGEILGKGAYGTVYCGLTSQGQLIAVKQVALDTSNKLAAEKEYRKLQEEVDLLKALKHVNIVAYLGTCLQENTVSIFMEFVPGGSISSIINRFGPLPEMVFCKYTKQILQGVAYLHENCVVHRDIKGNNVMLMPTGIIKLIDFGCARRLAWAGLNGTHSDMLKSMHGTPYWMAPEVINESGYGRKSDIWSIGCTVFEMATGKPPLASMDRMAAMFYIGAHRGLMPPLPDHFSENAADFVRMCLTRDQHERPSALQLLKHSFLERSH

[41] = target: 5-hydroxytryptamine receptor 3A (Homo sapiens) (UniProt P46098); conditions: Compound concentration 10.0 uM
[42] = target: Mu-type opioid receptor (Homo sapiens) (UniProt P35372); conditions: Compound concentration 10.0 uM
[43] = target: Delta-type opioid receptor (Homo sapiens, UniProt P41143); conditions: Compound concentration 10.0 uM
[44] = target: Histamine H1 receptor (Homo sapiens) (UniProt P35367); conditions: Compound concentration 10.0 uM
[45] = target: Muscarinic acetylcholine receptor M5 (Homo sapiens) (UniProt P08912); conditions: Compound concentration 10.0 uM

CC(=O)c1c(NS(C)(=O)=O)c2cc(-c3ccc(Cl)cc3)c(-c3ccc(Cl)cc3Cl)nc2n(C)c1=O [MRL-CB1-NC]
residual activity [1]: 100%
residual activity [2]: 100%
residual activity [3]: 96%
residual activity [4]: 96%
residual activity [5]: 100%
residual activity [6]: 100%
residual activity [7]: 100%
residual activity [8]: 98%
residual activity [9]: 100%
residual activity [10]: 100%
residual activity [11]: 85%
residual activity [12]: 83%
residual activity [13]: 100%
residual activity [14]: 73%
residual activity [15]: 100%
residual activity [16]: 80%
residual activity [17]: 100%
residual activity [18]: 100%
residual activity [19]: 100%
residual activity [20]: 98%
residual activity [21]: 100%
residual activity [22]: 99%
residual activity [23]: 74%
residual activity [24]: 90%
residual activity [25]: 65%
residual activity [26]: 100%
residual activity [27]: 100%
residual activity [28]: 87%
residual activity [29]: 93%
residual activity [30]: 100%
residual activity [31]: 76%
residual activity [32]: 100%
residual activity [33]: 100%
residual activity [34]: 100%
residual activity [35]: 97%
residual activity [36]: 92%
residual activity [37]: 95%
residual activity [38]: 100%
residual activity [39]: 97%
residual activity [40]: 85%
inhibition [41]: 3.2%
inhibition [42]: 34.4%
inhibition [43]: 73.6%
inhibition [44]: 18.8%
inhibition [45]: -4.92%

CC(=O)Nc1c(C(C)=O)c(=O)n(C)c2nc(-c3ccc(Cl)cc3Cl)c(-c3ccc(Cl)cc3)cc12 [NAPHTHYRIDINONE]
residual activity [1]: 100%
residual activity [2]: 100%
residual activity [3]: 100%
residual activity [4]: 100%
residual activity [5]: 100%
residual activity [6]: 100%
residual activity [7]: 100%
residual activity [8]: 96%
residual activity [9]: 100%
residual activity [10]: 100%
residual activity [11]: 100%
residual activity [12]: 100%
residual activity [13]: 100%
residual activity [14]: 80%
residual activity [15]: 100%
residual activity [16]: 100%
residual activity [17]: 100%
residual activity [18]: 100%
residual activity [19]: 100%
residual activity [20]: 100%
residual activity [21]: 100%
residual activity [22]: 95%
residual activity [23]: 100%
residual activity [24]: 100%
residual activity [25]: 91%
residual activity [26]: 100%
residual activity [27]: 100%
residual activity [28]: 100%
residual activity [29]: 100%
residual activity [30]: 100%
residual activity [31]: 88%
residual activity [32]: 100%
residual activity [33]: 92%
residual activity [34]: 96%
residual activity [35]: 88%
residual activity [36]: 81%
residual activity [37]: 100%
residual activity [38]: 100%
residual activity [39]: 100%
residual activity [40]: 100%
inhibition [41]: 5.67%
inhibition [42]: 8.16%
inhibition [43]: -2.35%
inhibition [44]: -1.39%
inhibition [45]: -4.54%
